In patent publication US9174984B2, “Chemical compounds” (GlaxoSmithKline Intellectual Property (No. 2) Limited, priority 2011, dated 2015) one finds IC50 data, which are given here for 32 compounds.

The structures appear in SMILES notation. A value given as a limit tells only on which side of the number the result lay.

The target of one assay is T1, Human DNMT3b/3L (Homo sapiens, UniProt Q9UBC3).
T1 construct: truncated 3b (catalytic domain)
The assay is described as follows: DNMT inhibition assay (3H-SAM filter-binding) against DNMT3b/3L. Particulars: at least one experimental run or average of several runs; Examples 1-114 and 115-120 use different protocols; read-out: IC50 against DNMT 3b/3L. It is filed as biochemical. As for the experimental part: DNMT Assays Used for Examples 1-114
Human DNMT3b/3L was coexpressed using truncated 3b (catalytic domain) and 3L (DNA binding domain) at GSK. Human full-length DNMT1 enzyme purchased from BPS Biosciences. Poly(dIdC) DNA (Sigma) was used at 0.002 mg/mL. Tritiated SAM (Perkin Elmer) was used at 500 nM. DNA, DNMT enzyme, and inhibitors were mixed with assay buffer (20 mM Tris pH8, 5% glycerol, 1 mM EDTA, 100 μg/mL BSA, 1 mM DTT, 50 mM NaCl) and pre-incubated without SAM for 30 min. H3 SAM was then added to initiate the methylation reaction which continues at 37° C. for 1 h. Reaction mixture was then transferred to a filter plate (Millipore Multiscreen HTS DE), then washed with 50 mM H2PO4 and 95% Ethanol. Scintillation counts were measured on the Perkin Elmer Microbeta scintillation counter.
DNMT Assays Used for Examples 115-120
DNMT enzymes were produced by GlaxoSmithKline. Human DNMT3b/3L was coexpressed using truncated 3b (catalytic domain) and 3L (DNA binding domain). DNMT1 was human, full-length protein. 3H-SAM was purchased from Perkin Elmer. Custon DNA oligonucleotide substrates were purchased from Integrated DNA technologies.
28-mer DNA Oligonucleotide Duplex (for DNMT3b/3L)
DNMT enzyme was preincubated with compound for 1 hr at RT, after which SAM and DNA were added to initiate the methylation reaction. The methylation reaction was quenched after 20 min upon the addition of >100 fold excess non-radioactive SAM. The quenched reaction mixture (80%) was transferred to a DEAE filter binding plate (Millipore Multiscreen HTS DE), washed with 3 volumes of 50 mM phosphate buffer and dried. Scintillation cocktail (MicroScint-20) was added to the plate and radioactivity (3H-DNA) was measured using a Perkin Elmer TopCount scintillation counter.
Final reagent concentrations (prior to quench) consisted of the following:
DNMT3b/3L (10 nM), 200 nM DNA, 200 nM 3H-SAM in 20 mM Tris (pH 8), 1 mM DTT, 1 mM EDTA, 25 mM NaCl, 1 mM CHAPS and 2% DMSO.
In the case of `CC#CC(=O)Nc1cccc(CN/C(=N\C#N)NCc2ccnc3[nH]ccc23)c1` [Example 14, (E)-N-(3-((3-((1H-Pyrrolo[2,3-b]pyridin-4-yl)methyl)-2-cyanoguanidino)methyl)phenyl)but-2-ynamide], the IC50 was at most 20000 nM. For `O=C(C#Cc1ccccc1)Nc1cccc(CNC(=N[N+](=O)[O-])NCc2ccnc3[nH]ccc23)c1` [Example 24, N-(3-((3-((1H-pyrrolo[2,3-b]pyridin-4-yl)methyl)-2-nitroguanidino)methyl)phenyl)-3-phenylpropiolamide], the IC50 was at most 1000 nM. The same measure, in the same setting: with `C=CC(=O)Nc1ccc(C(F)(F)F)cc1CNC(=S)NCc1ccnc2[nH]ccc12` [Example 33, N-(2-((3-((1H-pyrrolo[2,3-b]pyridin-4-yl)methyl)thioureido)methyl)-4-(trifluoromethyl)phenyl)acrylamide] the figure was at most 20000 nM; with `O=C(CCBr)Nc1cccc(CNC(=S)NCc2ccnc3[nH]ccc23)c1` [Example 36, N-(3-((3-((1H-pyrrolo[2,3-b]pyridin-4-yl)methyl)thioureido)methyl)phenyl)-3-bromopropanamide], at most 20000 nM; with `C=CC(=O)Nc1ccccc1CNS(=O)(=O)NCc1ccnc2[nH]ccc12` [Example 39, N-(2-(((N-((1H-pyrrolo[2,3-b]pyridin-4-yl)methyl)sulfamoyl)amino)methyl)phenyl)acrylamide], at most 10000 nM. Still for that read-out and setting: next, `O=C(C#Cc1ccccc1)NCCCNS(=O)(=O)NCc1ccnc2[nH]ccc12` [Example 49, N-(3-((N-((1H-pyrrolo[2,3-b]pyridin-4-yl)methyl)sulfamoyl)amino)propyl)-3-phenylpropiolamide]: at most 1000 nM. Same read-out and setting: with `O=C(C#Cc1ccccc1)NCCNS(=O)(=O)NCc1ccnc2[nH]ccc12` [Example 50, N-(2-((N-((1H-pyrrolo[2,3-b]pyridin-4-yl)methyl)sulfamoyl)amino)ethyl)-3-phenylpropiolamide] the figure was at most 10000 nM. Take `Nc1cccc(CNC(=O)NCc2ccnc3[nH]cc(Cl)c23)c1` [Example 52, 1-(3-aminobenzyl)-3-((3-chloro-1H-pyrrolo[2,3-b]pyridin-4-yl)methyl)urea]: the IC50 is 7100 nM.

As to `C=CC(=O)Nc1ccc(F)c(CNC(=S)NCc2ccnc3[nH]ccc23)c1` [Example 74, N-(3-((3-((1H-pyrrolo[2,3-b]pyridin-4-yl)methyl)thioureido)methyl)-4-fluorophenyl)acrylamide], the IC50 is at most 10000 nM. For the compound `C=CC(=O)Nc1cc(CNC(=S)NCc2ccnc3[nH]ccc23)ccc1Cl` [Example 76, N-(5-((3-((1H-pyrrolo[2,3-b]pyridin-4-yl)methyl)thioureido)methyl)-2-chlorophenyl)acrylamide], the IC50 is at most 1000 nM. In the case of `CC#CC(=O)Nc1cc(Cl)ccc1CNC(=S)NCc1ccnc2[nH]ccc12` [Example 82, N-(2-((3-((1H-pyrrolo[2,3-b]pyridin-4-yl)methyl)thioureido)methyl)-5-chlorophenyl)but-2-ynamide], the IC50 is at most 1000 nM. Consider `S=C(NCc1ccccc1-c1nccs1)NCc1ccnc2[nH]ccc12` [Example 111, 1-((1H-Pyrrolo[2,3-b]pyridin-4-yl)methyl)-3-(2-(thiazol-2-yl)benzyl)thiourea], for which the IC50 was at most 10000 nM.

Turning to `NCC(=O)Nc1cccc(CNC(=S)NCc2ccnc3[nH]ccc23)c1` [Example 112, N-(3-((3-((1H-Pyrrolo[2,3-b]pyridin-4-yl)methyl)thioureido)methyl)phenyl)-2-aminoacetamide], the IC50 is at most 20000 nM.

The same assay, now with this note: read-out: IC50 against DNMT 3b/3L.
In the case of `O=C(C#Cc1ccccc1)Nc1cccc(CNC(=O)NCc2ccnc3[nH]ccc23)c1` [Example 1, N-(3-((3-((1H-Pyrrolo[2,3-b]pyridin-4-yl)methyl)ureido)methyl)phenyl)-3-phenylpropiolamide], the IC50 was at most 1000 nM. Regarding `CC#CC(=O)Nc1cccc(CNC(=O)NCc2ccnc3[nH]ccc23)c1` [Example 3, N-(3-((3-((1H-Pyrrolo[2,3-b]pyridin-4-yl)methyl)ureido)methyl)phenyl)but-2-ynamide], the IC50 is at most 1000 nM. Same read-out and setting: with `NCc1cccc(NC(=S)NCc2ccnc3[nH]ccc23)c1` [Example 9, 1-((1H-Pyrrolo[2,3-b]pyridin-4-yl)methyl)-3-(3-(aminomethyl)phenyl)thiourea] the figure was at most 20000 nM; with `COc1ccc(C#CC(=O)NCCNC(=S)NCc2ccnc3[nH]ccc23)cc1` [Example 11, N-(2-(3-((1H-Pyrrolo[2,3-b]pyridin-4-yl)methyl)thioureido)ethyl)-3-(4-methoxyphenyl)propiolamide], at most 10000 nM. Still for that read-out and setting: with `N#C/N=C(\NCCNC(=O)C#Cc1ccccc1)NCc1ccnc2[nH]ccc12` [Example 15, (Z)—N-(2-(3-((1H-Pyrrolo[2,3-b]pyridin-4-yl)methyl)-2-cyanoguanidino)ethyl)-3-phenylpropiolamide] the figure was at most 10000 nM; with `O=C(C#Cc1ccccc1)NCCCNC(=O)NCc1ccnc2[nH]ccc12` [Example 17, N-(3-(3-((1H-pyrrolo[2,3-b]pyridin-4-yl)methyl)ureido)propyl)-3-phenylpropiolamide], at most 10000 nM. Same read-out and setting: next, `O=C(C#Cc1ccccc1)NCCCC(=O)NCc1ccnc2[nH]ccc12` [Example 18, N-((1H-pyrrolo[2,3-b]pyridin-4-yl)methyl)-4-(3-phenylpropiolamido)butanamide]: at most 1000 nM; `O=C(C#Cc1ccccc1)Nc1cccc(CCC(=O)NCc2ccnc3[nH]ccc23)c1` [Example 19, N-(3-(3-(((1H-pyrrolo[2,3-b]pyridin-4-yl)methyl)amino)-3-oxopropyl)phenyl)-3-phenylpropiolamide]: at most 1000 nM. As for `CN(CCNC(=O)NCc1ccnc2[nH]ccc12)C(=O)C#Cc1ccccc1` [Example 20, N-(2-(3-((1H-pyrrolo[2,3-b]pyridin-4-yl)methyl)ureido)ethyl)-N-methyl-3-phenylpropiolamide], the IC50 is at most 10000 nM.

For `O=C(C#Cc1ccccc1)NCc1ccccc1CNC(=O)NCc1ccnc2[nH]ccc12` [Example 21, N-(2-((3-((1H-pyrrolo[2,3-b]pyridin-4-yl)methyl)ureido)methyl)benzyl)-3-phenylpropiolamide], the IC50 was at most 1000 nM. On the same count and under the same terms, with `O=C(C#Cc1ccccc1)N1CCCC(CNS(=O)(=O)NCc2ccnc3[nH]ccc23)C1` (centres unmarked) [Example 48, 1-((1H-pyrrolo[2,3-b]pyridin-4-yl)methyl)-3-((1-(3-phenylpropioloyl)piperidin-3-yl)methyl)sulfuric diamide] the figure was at most 1000 nM; with `O=C(C#Cc1ccccc1)Nc1cccc(CNC(=O)NCc2ccnc3[nH]cc(Cl)c23)c1` [Example 53, N-(3-((3-((3-chloro-1H-pyrrolo[2,3-b]pyridin-4-yl)methyl)ureido)methyl)phenyl)-3-phenylpropiolamide], at most 1000 nM; with `O=C(C#Cc1ccccc1)NCc1ccccc1CNS(=O)(=O)NCc1ccnc2[nH]ccc12` [Example 55, N-(2-(((N-((1H-pyrrolo[2,3-b]pyridin-4-yl)methyl)sulfamoyl)amino)methyl)benzyl)-3-phenylpropiolamide], at most 1000 nM. For the compound `O=C(C#Cc1ccccc1)NCc1ccccc1CNC(=S)NCc1ccnc2[nH]ccc12` [Example 56, N-(2-((3-((1H-pyrrolo[2,3-b]pyridin-4-yl)methyl)thioureido)methyl)benzyl)-3-phenylpropiolamide], the IC50 was at most 1000 nM. As for `O=C(NCc1ccnc2[nH]ccc12)NC1CN(C(=O)C#Cc2ccccc2)C1` [Example 57, 1-((1H-pyrrolo[2,3-b]pyridin-4-yl)methyl)-3-(1-(3-phenylpropioloyl)azetidin-3-yl)urea], the IC50 is at most 1000 nM. On to `O=C(NCc1ccnc2[nH]ccc12)NC1CCN(C(=O)C#Cc2ccccc2)C1` (centres unmarked) [Example 58, 1-((1H-pyrrolo[2,3-b]pyridin-4-yl)methyl)-3-(1-(3-phenylpropioloyl)pyrrolidin-3-yl)urea], for which the IC50 is at most 1000 nM. With `O=C(C#Cc1ccccc1)Nc1cccc(CNC(=O)NCc2ccnc3[nH]cc(F)c23)c1` [Example 62, N-(3-((3-((3-fluoro-1H-pyrrolo[2,3-b]pyridin-4-yl)methyl)ureido)methyl)phenyl)-3-phenylpropiolamide], the IC50 was at most 1000 nM.

For `O=C(C#Cc1ccccc1)Nc1cccc(CNC(=O)NCc2ccnc3[nH]cc(Br)c23)c1` [Example 63, N-(3-((3-((3-bromo-1H-pyrrolo[2,3-b]pyridin-4-yl)methyl)ureido)methyl)phenyl)-3-phenylpropiolamide], the IC50 is at most 1000 nM.

For the compound `O=C(NCc1ccnc2[nH]cc(Cl)c12)NC1CCN(C(=O)C#Cc2ccccc2)C1` (centres unmarked) [Example 64, 1-((3-chloro-1H-pyrrolo[2,3-b]pyridin-4-yl)methyl)-3-(1-(3-phenylpropioloyl)pyrrolidin-3-yl)urea], the IC50 was at most 10000 nM.
